Results from US20100010024A1, “USE OF1,4-DIARYL-DIHYDROPYRIMIDINE-2-ON DERIVATIVES FOR TREATING PULMONARY ARTERIAL HYPERTENSION” (Bayer Healthcare AG, priority 2006, published 2010).

What follows are molecules tested against T1, human neutrophil elastase (HNE) (Homo sapiens, UniProt P08246) (assay: In vitro HNE inhibition assay). Settings: 80 pM HNE, 20 μM MeOSuc-Ala-Ala-Pro-Val-AMC, 37° C., 2 hours, fluorescence.
T1 construct: purchased Serva, Heidelberg
T1 sequence (P08246 30-267): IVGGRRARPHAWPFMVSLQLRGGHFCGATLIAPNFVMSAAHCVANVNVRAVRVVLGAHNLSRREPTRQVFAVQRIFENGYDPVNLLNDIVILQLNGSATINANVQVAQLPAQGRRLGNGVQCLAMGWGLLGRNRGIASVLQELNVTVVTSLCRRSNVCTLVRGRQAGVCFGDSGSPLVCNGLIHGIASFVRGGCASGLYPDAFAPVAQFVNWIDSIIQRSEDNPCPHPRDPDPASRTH
Assay type: biochemical
Protocol: B-1. In vitro HNE Inhibition Assay
The potency of the compounds of the invention is ascertained in an in vitro inhibition assay. The HNE-mediated amidolytic cleavage of a suitable peptide substrate leads in this connection to an increase in the fluorescent light. The signal intensity of the fluorescent light is directly proportional to the enzyme activity.
Enzyme (80 pM HNE; from Serva, Heidelberg) and substrate (20 μM MeOSuc-Ala-Ala-Pro-Val-AMC; from Bachem, Weil am Rhein) are incubated in an assay volume of in total 50 μl of assay buffer (0.1 M HEPES pH 7.4, 0.5 M NaCl, 0.1% w/v BSA, 1% v/v DMSO) in a 384-well microtiter plate in the presence and absence of the test substance at 37° C. for 2 hours. […] The IC50 values are determined by plotting the intensity of the fluorescent light against the active substance concentration.

| IC50 | SMILES |
| --- | --- |
| 14.8 nM | CC1=C(C(=O)C2CCC2)[C@@H](c2ccc(C#N)cc2)NC(=O)N1c1cccc(C(F)(F)F)c1 [Example 3, 4-{(4R)-5-(Cyclobutylcarbonyl)-6-methyl-2-oxo-1-[3-(trifluoromethyl)phenyl]-1,2,3,4-tetrahydropyrimidin-4-yl}benzonitrile] |
| 5.2 nM | CC(=O)C1=C(C)N(c2ccc(F)c(C(F)(F)F)c2)C(=O)N[C@@H]1c1ccc(C#N)cc1 [Example 7, 4-{(4R)-5-Acetyl-1-[4-fluoro-3-(trifluoromethyl)phenyl]-6-methyl-2-oxo-1,2,3,4-tetrahydropyrimidin-4-yl}benzonitrile] |
| 4.3 nM | CC1=C(C(=O)C2CCC2)[C@@H](c2ccc(C#N)cc2)N(CC(=O)O)C(=O)N1c1cccc(C(F)(F)F)c1 [Example 8, [(6R)-6-(4-Cyanophenyl)-5-(cyclobutylcarbonyl)-4-methyl-2-oxo-3-[3-(trifluoromethyl)phenyl]-3,6-dihydropyrimidin-1(2H)-yl]acetic acid] |
| 2.9 nM | CC1=C(C(=O)C(C)C)[C@@H](c2ccc(C#N)cc2)N(CC(=O)O)C(=O)N1c1cccc(C(F)(F)F)c1 [Example 16, [(6R)-6-(4-Cyanophenyl)-5-isobutyryl-4-methyl-2-oxo-3-[3-(trifluoromethyl)phenyl]-3,6-dihydropyrimidin-1(2H)-yl]acetic acid] |
| 3.9 nM | CC(=O)C1=C(C)N(c2cccc(C(F)(F)F)c2)C(=O)N(Cc2cccc(C(=O)O)c2)[C@@H]1c1ccc(C#N)cc1 [Example 17, 3-{[(6R)-5-Acetyl-6-(4-cyanophenyl)-4-methyl-2-oxo-3-[3-(trifluoromethyl)phenyl]-3,6-dihydropyrimidin-1(2H)-yl]methyl}benzoic acid] |
| 2.9 nM | CC(=O)C1=C(C)N(c2cccc(C(F)(F)F)c2)C(=O)N(Cc2ccc(C(=O)O)cc2)[C@@H]1c1ccc(C#N)cc1 [Example 18, 4-{[(6R)-5-Acetyl-6-(4-cyanophenyl)-4-methyl-2-oxo-3-[3-(trifluoromethyl)phenyl]-3,6-dihydropyrimidin-1(2H)-yl]methyl}benzoic acid] |
| 5.5 nM | CC(=O)C1=C(C)N(c2cccc(C(F)(F)F)c2)C(=O)N(CC(N)=O)[C@@H]1c1ccc(C#N)cc1 [Example 21, 2-[(6R)-5-Acetyl-6-(4-cyanophenyl)-4-methyl-2-oxo-3-[3-(trifluoromethyl)phenyl]-3,6-dihydropyrimidine-1(2H)-yl]acetamide] |
| 1.4 nM | CC1=C(C(=O)OCCO)[C@@H](c2ccc(C#N)cc2)N(CC(N)=O)C(=O)N1c1cccc(C(F)(F)F)c1 [Example 29] |
| 0.4 nM | CCOC(=O)C1=C(C)N(c2cccc(C(F)(F)F)c2)C(=O)N(CC(=O)N(C)C)[C@@H]1c1ccc(C#N)cc1 [Example 30, Ethyl(4R)-4-(4-cyanophenyl)-3-[2-(dimethylamino)-2-oxoethyl]-6-methyl-2-oxo-1-[3-(trifluoromethyl)phenyl]-1,2,3,4-tetrahydropyrimidine-5-carboxylate] |
